Assay [1] deals with barnyardgrass. As to the kind of experiment: Test Example 2: soil surface treatment, upland pot test. The class given is in vivo, Echinochloa crus-galli L. Particulars: active ingredient 500 g/ha, observed 20th to 28th day. An excerpt:
(§1) Upland field soil was put into a 1/170,000 ha pot, and seed of various plants (barnyardgrass, crabgrass, green foxtail, redroot pigweed, prickly sida, velvetleaf, rice, wheat, corn, soybean) were sown. On the 1st day after the sowing, a wettable powder or emulsifiable concentrate having the compound of the present invention formulated in accordance with a usual formulation method, was weighed so that the active ingredient would be a predetermined amount, and diluted with water in an amount of 1,500 L/ha. The herbicide thus adjusted was applied by a small size sprayer for soil surface treatment. On the 20th to 28th days after the application of the herbicide, the growth of the respective plants was visually observed, and the herbicidal effects were evaluated by the growth controlling degrees (%) ranging from 0 (equivalent to the non-treated plot) to 100 (complete kill), whereby the results shown in Table 4, were obtained.

The subject of assay [2] is crabgrass. The assay is described as above. Particulars: active ingredient 500 g/ha, observed 20th to 28th day. It counts as in vivo, Digitaria sanguinalis L.
Description: as §1

Assay [3] has as its system green foxtail. The assay is described as above. It counts as in vivo, Setaria viridis L. The note with it: active ingredient 500 g/ha, observed 20th to 28th day.
Description: as §1

The subject of assay [4] is redroot pigweed. The description is as above. The class given is in vivo, Amaranthus retroflexus L. Particulars: active ingredient 500 g/ha, observed 20th to 28th day.
Description: as §1

In assay [5] the test system is prickly sida. The description is as above. The note with it: active ingredient 500 g/ha, observed 20th to 28th day. It counts as in vivo, Sida spinosa L.
Description: as §1

The test system of assay [6] is velvetleaf. Described as above. The note with it: active ingredient 500 g/ha, observed 20th to 28th day. The class given is in vivo, Abutilon theophrasti MEDIC.
Description: as §1

The subject of assay [7] is rice. Described as above. The class given is in vivo, Oryza sativa L. The note with it: active ingredient 500 g/ha, observed 20th to 28th day.
Description: as §1

For assay [8], the system named is corn. Described as above. It counts as in vivo, Zea mays L. Particulars: active ingredient 500 g/ha, observed 20th to 28th day.
Description: as §1

Assay [9] relates to soybean. Described as above. The note with it: active ingredient 500 g/ha, observed 20th to 28th day. It counts as in vivo, Glycine max Merr.
Description: as §1

Assay [10] has as its system barnyardgrass. As to the kind of experiment: Test Example 3: paddy pot test, application under submerged conditions. The class given is in vivo, Echinochloa crus-galli L. The note with it: active ingredient 250 g/ha; submerged application at 0.5 leaf stage; visually observed 14 days after application; 0 = non-treated, 100 = complete kill. An outline of the steps: (§2)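 After sowing seeds and planting wapato tubers in flooded paddy soil, an aqueous dilution of the formulated compound was added to the 3–4 cm flood water at early leaf stage. Percent growth control relative to the untreated plot was assessed visually on day 14.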

The test system of assay [11] is japanese bulrush. The description is as above. The class given is in vivo, Scirpus juncoides. The note with it: active ingredient 250 g/ha; submerged application at 0.5 leaf stage; visually observed 14 days after application; 0 = non-treated, 100 = complete kill. Summed up: as §2
The test system of assay [12] is japanese ribbon wapato. Described as above. The note with it: active ingredient 250 g/ha; submerged application at primary leaf stage; visually observed 14 days after application; 0 = non-treated, 100 = complete kill. The class given is in vivo, Sagittaria pygniaea. Summed up:
as §2

The test system of assay [13] is rice (var. Nihonbare). Kind of assay: Test Example 3: paddy pot test, transplanted rice. The class given is in vivo, Oryza sativa L. Particulars: active ingredient 250 g/ha, applied 4th day after transplantation, visually observed 21st day after application, 0 = non-treated, 100 = complete kill. Summed up: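 Rice (2-leaf stage) was transplanted 3 cm deep into puddled, leveled paddy soil under 3–4 cm flooding. On day 4 after transplanting, diluted wettable powder or emulsifiable concentrate was pipetted onto the water at a predetermined active-ingredient dose. Growth control (0 = untreated, 100 = complete kill) was scored visually 21 days later.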

For the compound `CC(C)C(c1cnccc1Cl)N(C)C(=O)COc1ccccc1` (stereo not drawn) [Compound I-84], the figures for the “Growth controlling degree (%) Barnyardgrass” value in assay [1] and in assay [10] were 80% and 98%, respectively. The “Growth controlling degree (%) Crabgrass” value in assay [2] is reported as 70%. Also, the “Growth controlling degree (%) Green foxtail” value in assay [3] came to 30%. For the same compound, the “Growth controlling degree (%) Redroot pigweed” value in assay [4] came out at 50%. Besides, the “Growth controlling degree (%) Prickly sida” value in assay [5] was found to be 0%. Besides, the “Growth controlling degree (%) Velvetleaf” value in assay [6] came out at 0%. In addition, the figures for the “Growth controlling degree (%) Rice” value in assay [7] and in [13] were 20% and 0%, respectively. Further, the “Growth controlling degree (%) Corn” value in assay [8] was found to be 20%. Further, the “Growth controlling degree (%) Soyabean” value in assay [9] is recorded as 0%. For the same compound, in assay [11], the “Growth controlling degree (%) Japanese bulrush” value turned out to be 98%. For the same compound, the “Growth controlling degree (%) Japanese ribbon wapato” value in assay [12] was found to be 20%.
Consider `CC(C)C(c1cnccc1C(F)(F)F)N(C)C(=O)Cc1cc(C(F)(F)F)ccc1F` (stereo not drawn) [Compound I-96], for which the “Growth controlling degree (%) Barnyardgrass” value in assay [1] is 60%; in assay [10] it was 100%. For the same compound, in assay [2], the “Growth controlling degree (%) Crabgrass” value is on record as 85%. For the same compound, in [3], the “Growth controlling degree (%) Green foxtail” value stood at 100%. Also, the “Growth controlling degree (%) Redroot pigweed” value in assay [4] is given as 80%. Further, in assay [5], the “Growth controlling degree (%) Prickly sida” value was 70%. Also, in [6], the “Growth controlling degree (%) Velvetleaf” value is 50%. In addition, the entries for the “Growth controlling degree (%) Rice” value in assay [7] and in [13] were 10% and 30%, respectively. In addition, the “Growth controlling degree (%) Corn” value in [8] was determined as 20%. In addition, the “Growth controlling degree (%) Soyabean” value in assay [9] stood at 20%. Moreover, the “Growth controlling degree (%) Japanese bulrush” value in [11] is 100%. Besides, the “Growth controlling degree (%) Japanese ribbon wapato” value in assay [12] came to 0%.
`CC(C)C(c1cnccc1C(F)(F)F)N(C)C(=O)Cc1cc(F)cc(C(F)(F)F)c1` (stereo not drawn) [Compound I-97]: the “Growth controlling degree (%) Barnyardgrass” value in assay [1] was 60%; in [10], 100%. For the same compound, the “Growth controlling degree (%) Crabgrass” value in assay [2] is 98%. The “Growth controlling degree (%) Green foxtail” value in assay [3] is given as 100%. The “Growth controlling degree (%) Redroot pigweed” value in assay [4] is recorded as 60%. In addition, the “Growth controlling degree (%) Prickly sida” value in assay [5] is 90%. Moreover, the “Growth controlling degree (%) Velvetleaf” value in assay [6] was found to be 40%. The “Growth controlling degree (%) Rice” value in assay [7] is given as 40%; in assay [13], 0%. Moreover, in assay [8], the “Growth controlling degree (%) Corn” value was found to be 20%. For the same compound, in [9], the “Growth controlling degree (%) Soyabean” value came out at 10%. Also, the “Growth controlling degree (%) Japanese bulrush” value in [11] is 80%. Further, the “Growth controlling degree (%) Japanese ribbon wapato” value in assay [12] turned out to be 0%.
`CCN(C(=O)Cc1ccc(F)cc1)C(c1cnccc1C(F)(F)F)C(C)C` (stereo not drawn) [Compound I-99]: the “Growth controlling degree (%) Barnyardgrass” value in assay [1] and in assay [10] was 100% throughout. In assay [2], the “Growth controlling degree (%) Crabgrass” value was 98%. Besides, the “Growth controlling degree (%) Green foxtail” value in assay [3] is 100%. Also, the “Growth controlling degree (%) Redroot pigweed” value in [4] stood at 40%. For the same compound, the “Growth controlling degree (%) Prickly sida” value in assay [5] came out at 95%. Moreover, the “Growth controlling degree (%) Velvetleaf” value in assay [6] came to 40%. For the same compound, the “Growth controlling degree (%) Rice” value is on record as 20% in assay [7] and 0% in assay [13]. In addition, the “Growth controlling degree (%) Corn” value in assay [8] was found to be 40%. In assay [9], the “Growth controlling degree (%) Soyabean” value is on record as 30%. The “Growth controlling degree (%) Japanese bulrush” value in [11] was 98%. Also, in [12], the “Growth controlling degree (%) Japanese ribbon wapato” value came out at 90%.
Turning to `CCN(C(=O)Cc1ccc(Cl)cc1)C(c1cnccc1C(F)(F)F)C(C)C` (stereo not drawn) [Compound I-100], the “Growth controlling degree (%) Barnyardgrass” value in [1] was determined as 98%; in [10], 100%. Further, the “Growth controlling degree (%) Crabgrass” value in [2] came out at 98%. Moreover, in [3], the “Growth controlling degree (%) Green foxtail” value was 100%. In [4], the “Growth controlling degree (%) Redroot pigweed” value worked out at 10%. For the same compound, the “Growth controlling degree (%) Prickly sida” value in assay [5] turned out to be 70%. Further, the “Growth controlling degree (%) Velvetleaf” value in [6] is 10%. In addition, the “Growth controlling degree (%) Rice” value came to 30% in assay [7] and 10% in assay [13]. The “Growth controlling degree (%) Corn” value in [8] was found to be 30%. In addition, the “Growth controlling degree (%) Soyabean” value in assay [9] turned out to be 0%. The “Growth controlling degree (%) Japanese bulrush” value in [11] came to 95%. The “Growth controlling degree (%) Japanese ribbon wapato” value in assay [12] stood at 30%.
Regarding `CCN(C(=O)Cc1ccccc1)C(c1cnccc1Cl)C(C)C` (stereo not drawn) [Compound I-102], the “Growth controlling degree (%) Barnyardgrass” value is given as 100% in assay [1] and 98% in [10]. In [2], the “Growth controlling degree (%) Crabgrass” value is recorded as 98%. Moreover, the “Growth controlling degree (%) Green foxtail” value in [3] is listed as 100%. Moreover, the “Growth controlling degree (%) Redroot pigweed” value in [4] is on record as 20%. For the same compound, the “Growth controlling degree (%) Prickly sida” value in [5] is reported as 60%. Further, the “Growth controlling degree (%) Velvetleaf” value in [6] stood at 0%. Besides, the “Growth controlling degree (%) Rice” value in assay [7] and in [13] was 10% each time. Besides, the “Growth controlling degree (%) Corn” value in assay [8] was 35%. For the same compound, in [9], the “Growth controlling degree (%) Soyabean” value is reported as 20%. Moreover, the “Growth controlling degree (%) Japanese bulrush” value in [11] is on record as 100%. Besides, the “Growth controlling degree (%) Japanese ribbon wapato” value in [12] worked out at 60%.
Regarding `Cc1ccc(OCC(=O)N(C)C(c2cnccc2C(F)(F)F)C(C)C)cc1` (stereo not drawn) [Compound I-239], the entries for the “Growth controlling degree (%) Barnyardgrass” value in assay [1] and in assay [10] were 60% and 98%, respectively. In [2], the “Growth controlling degree (%) Crabgrass” value was determined as 95%. Also, the “Growth controlling degree (%) Green foxtail” value in assay [3] is on record as 90%. For the same compound, the “Growth controlling degree (%) Redroot pigweed” value in assay [4] was 70%. In assay [5], the “Growth controlling degree (%) Prickly sida” value is reported as 80%. Besides, the “Growth controlling degree (%) Velvetleaf” value in assay [6] is reported as 30%. The “Growth controlling degree (%) Rice” value in assay [7] and in [13] was 0% in each case. For the same compound, the “Growth controlling degree (%) Corn” value in assay [8] is 10%. The “Growth controlling degree (%) Soyabean” value in [9] amounted to 10%. In assay [11], the “Growth controlling degree (%) Japanese bulrush” value was found to be 98%. Besides, in [12], the “Growth controlling degree (%) Japanese ribbon wapato” value was determined as 70%.
Take `CC(C)C(c1cnccc1C(F)(F)F)N(C)C(=O)COc1cccc(F)c1` (stereo not drawn) [Compound I-242]: the “Growth controlling degree (%) Barnyardgrass” value in [1] is listed as 98%; in [10], 100%. Also, the “Growth controlling degree (%) Crabgrass” value in assay [2] was 98%. The “Growth controlling degree (%) Green foxtail” value in assay [3] came to 100%. Further, in [4], the “Growth controlling degree (%) Redroot pigweed” value was found to be 90%. Further, the “Growth controlling degree (%) Prickly sida” value in assay [5] came out at 98%. The “Growth controlling degree (%) Velvetleaf” value in assay [6] is recorded as 70%. Moreover, the figures for the “Growth controlling degree (%) Rice” value in [7] and in [13] were 10% and 0%, respectively. In [8], the “Growth controlling degree (%) Corn” value is on record as 40%. In assay [9], the “Growth controlling degree (%) Soyabean” value was 10%. Further, the “Growth controlling degree (%) Japanese bulrush” value in [11] was found to be 95%. The “Growth controlling degree (%) Japanese ribbon wapato” value in [12] was determined as 70%.
Regarding `CC(C)C(c1cnccc1C(F)(F)F)N(C)C(=O)COc1ccccc1F` (stereo not drawn) [Compound I-243], the “Growth controlling degree (%) Barnyardgrass” value in assay [1] stood at 90%; in assay [10] it was 100%. Further, in assay [2], the “Growth controlling degree (%) Crabgrass” value amounted to 100%. Besides, the “Growth controlling degree (%) Green foxtail” value in assay [3] is recorded as 100%. For the same compound, in assay [4], the “Growth controlling degree (%) Redroot pigweed” value worked out at 80%. Also, the “Growth controlling degree (%) Prickly sida” value in assay [5] was found to be 90%. In assay [6], the “Growth controlling degree (%) Velvetleaf” value was 30%. In addition, the “Growth controlling degree (%) Rice” value in assay [7] is 10%; in [13] it was 0%. Moreover, the “Growth controlling degree (%) Corn” value in assay [8] came out at 40%. Besides, the “Growth controlling degree (%) Soyabean” value in assay [9] is listed as 10%. Moreover, the “Growth controlling degree (%) Japanese bulrush” value in assay [11] was 98%. In addition, the “Growth controlling degree (%) Japanese ribbon wapato” value in [12] came to 70%.
